Results on 26 compounds are retold here after patent US20260345574A1, “POTENT AND SELECTIVE IRREVERSIBLE INHIBITORS OF IRAK1” (Dana-Farber Cancer Institute, Inc., priority 2022, published 2026).

As a reminder, the pIC50 is the negative decadic logarithm of the IC50, by convention in mol/L. A higher pIC50 goes with a small IC50.

The target of one assay is T1, IRAK4 (Homo sapiens, UniProt Q9NWZ3).
T1 sequence (Q9NWZ3 1-460): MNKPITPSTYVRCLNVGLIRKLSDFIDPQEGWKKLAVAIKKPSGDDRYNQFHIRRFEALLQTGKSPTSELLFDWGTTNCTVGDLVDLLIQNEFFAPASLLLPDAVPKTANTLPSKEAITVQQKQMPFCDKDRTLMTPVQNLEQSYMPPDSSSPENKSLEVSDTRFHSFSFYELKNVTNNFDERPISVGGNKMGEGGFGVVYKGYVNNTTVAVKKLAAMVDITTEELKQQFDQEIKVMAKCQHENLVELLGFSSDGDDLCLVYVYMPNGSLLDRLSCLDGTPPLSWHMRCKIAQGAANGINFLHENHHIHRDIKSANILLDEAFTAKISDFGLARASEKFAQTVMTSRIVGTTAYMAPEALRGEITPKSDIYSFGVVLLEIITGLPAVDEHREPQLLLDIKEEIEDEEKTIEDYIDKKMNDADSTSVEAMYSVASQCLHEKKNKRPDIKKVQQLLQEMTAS
As to the kind of experiment: Z'-LYTE assay (ThermoFisher) against IRAK4. The format is biochemical. To be noted: Ser/Thr 07 substrate, 60 minutes at room temperature. The protocol:
To measure the IC50 values of compounds herein against IRAK4, a Z′-LYTE assay (ThermoFisher) was used. Briefly, 2.5 μL of different concentrations of the compounds in 1% DMSO were added to 2.4 μL kinase buffer (50 mM HEPES pH 7.5, 0.01% BRIJ-35, 10 mM MgCl2, 1 mM EGTA) in each well of a 384-well plate (Corning Cat. #3676). 5 μL of 2× IRAK4/Ser/Thr 07 mixture (prepared in 50 mM HEPES pH 7.5, 0.01% BRIJ-35, 10 mM MnCl2, 2 mM DTT, and 0.02% NaN3) and 2.5 μL of 4× ATP solution (4× ATP, 50 mM HEPES, pH 7.5, 0.01% BRIJ-35, 10 mM MgCl2, 1 mM EGTA) were added to each well. The plate was shaken for 30 seconds, and then incubated at room temperature for 60 minutes. 5 μL of a 1:100000 dilution of Development Reagent A was added to each well. The plate was shaken for 30 seconds and incubated for 60 minutes at room temperature. The plate was subsequently read on a fluorescence plate reader, and the emissions ratio was calculated to determine the ratio of Ser/Thr 07 phosphorylated by the reaction. Emissions Ratio=Coumarin Emission (443 nm)/Flourescein Emission (520 nm).

In a further assay the target is IRAK1 (Homo sapiens, UniProt P51617). As to the kind of experiment: Adapta Universal Kinase Assay (ThermoFisher) against IRAK1. In kind it is biochemical. To be noted: Histone H3 (1-20) peptide substrate, 60 minutes at room temperature. The protocol:
To measure the IC50 values of the compounds herein against IRAK1, the Adapta Universal Kinase Assay (ThermoFisher) was used. Briefly, 100 nL of different concentrations of the compounds in 100% DMSO were added to each well of a 384-well plate (Corning Cat. #4512). 2.4 μL of 30 mM HEPES, 2.5 μL of 4× ATP solution (in water), and 5 μL of 2× IRAK1/Histone H3 (1-20) peptide mixture (prepared in 50 mM HEPES pH 7.5, 0.01% BRIJ-35, 10 mM MgCl2, 1 mM EGTA) were added to each well. The plate was shaken for 30 seconds and centrifuged for 1 minute at 1000×g. The plate was then incubated at room temperature for 60 minutes. 5 μL of Detection Mix was added to each well. The plate was shaken for 30 seconds and centrifuged for 1 minute at 1000×g. The plate was then incubated at room temperature for 60 minutes. The plate was subsequently read on a fluorescence plate reader, and the emissions ratio was calculated to determine the ratio of ATP to ADP. Emissions Ratio=AF647 Emission (665 nm)/Europium Emission (615 nm).

pIC50: −log10 of the molar value.

IRAK1, sequence (P51617 whole entry): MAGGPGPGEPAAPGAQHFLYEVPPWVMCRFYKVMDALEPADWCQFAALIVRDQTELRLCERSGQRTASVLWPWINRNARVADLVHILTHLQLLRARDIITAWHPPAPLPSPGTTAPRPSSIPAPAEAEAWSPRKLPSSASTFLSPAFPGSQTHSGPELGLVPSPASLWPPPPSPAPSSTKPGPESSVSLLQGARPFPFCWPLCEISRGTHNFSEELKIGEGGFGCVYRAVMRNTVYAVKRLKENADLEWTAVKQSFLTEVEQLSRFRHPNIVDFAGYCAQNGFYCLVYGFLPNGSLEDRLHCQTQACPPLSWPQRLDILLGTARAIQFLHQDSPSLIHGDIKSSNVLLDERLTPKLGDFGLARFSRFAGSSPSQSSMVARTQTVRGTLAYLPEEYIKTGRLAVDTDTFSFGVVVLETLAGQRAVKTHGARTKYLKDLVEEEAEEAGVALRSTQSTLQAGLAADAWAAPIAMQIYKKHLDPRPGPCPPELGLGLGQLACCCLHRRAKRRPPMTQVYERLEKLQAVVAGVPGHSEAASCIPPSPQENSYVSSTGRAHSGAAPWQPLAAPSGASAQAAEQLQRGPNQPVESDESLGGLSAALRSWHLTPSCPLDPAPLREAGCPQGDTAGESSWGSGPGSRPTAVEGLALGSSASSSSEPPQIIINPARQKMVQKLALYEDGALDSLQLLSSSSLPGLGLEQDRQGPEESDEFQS

For `C=CC(=O)N1CCC[C@H](c2nc(-c3ccc(NC(=O)c4cccc(-c5ccn[nH]5)n4)nc3)no2)C1` [Compound 001, (S)-N-(5-(5-(1-acryloylpiperidin-3-yl)-1,2,4-oxadiazol-3-yl)pyridin-2-yl)-6-(1H-pyrazol-5-yl)picolinamide], the pIC50 is less than 5.00 against IRAK4 and 7.70 on IRAK1. With `C=CC(=O)N1CC(c2nc(-c3ccc(NC(=O)c4cccc(-c5ccn[nH]5)n4)nc3)no2)CC(F)(F)C1` (centres unmarked) [Compound 002, N-(5-(5-(1-acryloyl-5,5-difluoropiperidin-3-yl)-1,2,4-oxadiazol-3-yl)pyridin-2-yl)-6-(1H-pyrazol-5-yl)picolinamide], the results for the pIC50 at IRAK4 and against IRAK1 were less than 5.00 and 8.19, respectively. For `C=CC(=O)N1CCC[C@H](c2nnc(-c3ccc(NC(=O)c4cccc(-c5ccn[nH]5)n4)nc3)o2)C1` [Compound 005, (S)-N-(5-(5-(1-acryloylpiperidin-3-yl)-1,3,4-oxadiazol-2-yl)pyridin-2-yl)-6-(1H-pyrazol-5-yl)picolinamide], the pIC50 against IRAK4 is 5.03; against IRAK1, 7.02.

Consider `C=CC(=O)N1CCC[C@H](c2nc(-c3ccc(NC(=O)c4cccc(-c5[nH]ncc5C)n4)nc3)no2)C1` [Compound 006, (S)-N-(5-(5-(1-acryloylpiperidin-3-yl)-1,2,4-oxadiazol-3-yl)pyridin-2-yl)-6-(4-methyl-1H-pyrazol-5-yl)picolinamide], for which the pIC50 is less than 5.00 at IRAK4 and 8.09 at IRAK1. `C=CC(=O)N1CC(c2nc(-c3ccc(NC(=O)c4cccc(-c5[nH]ncc5C)n4)nc3)no2)CC(F)(F)C1` (centres unmarked) [Compound 007, N-(5-(5-(1-acryloyl-5,5-difluoropiperidin-3-yl)-1,2,4-oxadiazol-3-yl)pyridin-2-yl)-6-(4-methyl-1H-pyrazol-5-yl)picolinamide]: the pIC50 is less than 5.00 against IRAK4 and 8.40 on IRAK1. Regarding `C=CC(=O)N1CC(c2nc(-c3ccc(NC(=O)c4cccc(-c5[nH]ncc5Cl)n4)nc3)no2)CC(F)(F)C1` (centres unmarked) [Compound 008, N-(5-(5-(1-acryloyl-5,5-difluoropiperidin-3-yl)-1,2,4-oxadiazol-3-yl)pyridin-2-yl)-6-(4-chloro-1H-pyrazol-5-yl)picolinamide], the pIC50 at IRAK4 is less than 5.00; at IRAK1 it was 8.29.

In the case of `C=CC(=O)N1CC(C(F)(F)F)C[C@H](c2nc(-c3ccc(NC(=O)c4cccc(-c5ccn[nH]5)n4)nc3)no2)C1` (stereo partly drawn) [Compound 009, N-(5-(5-((3S)-1-acryloyl-5-(trifluoromethyl)piperidin-3-yl)-1,2,4-oxadiazol-3-yl)pyridin-2-yl)-6-(1H-pyrazol-5-yl)picolinamide], the results for the pIC50 at IRAK4 and against IRAK1 were less than 5.00 and 8.40, respectively. In the case of `C=CC(=O)N1CC2CC1[C@@H](c1nc(-c3ccc(NC(=O)c4cccc(-c5[nH]ncc5C)n4)nc3)no1)C2` (stereo partly drawn) [Compound 010, N-(5-(5-((6S)-2-acryloyl-2-azabicyclo[2.2.1]heptan-6-yl)-1,2,4-oxadiazol-3-yl)pyridin-2-yl)-6-(4-methyl-1H-pyrazol-5-yl)picolinamide], the pIC50 on IRAK4 was less than 5.00; against IRAK1, 8.29.

`C=CC(=O)N1CCC[C@H](c2nc(-c3ccc(NC(=O)c4cccc(-c5ccnn5CC5(C(F)(F)F)CC5)n4)nc3)no2)C1` [Compound 017, (S)-N-(5-(5-(1-acryloylpiperidin-3-yl)-1,2,4-oxadiazol-3-yl)pyridin-2-yl)-6-(1-((1-(trifluoromethyl)cyclopropyl)methyl)-1H-pyrazol-5-yl)picolinamide]: the pIC50 at IRAK4 and on IRAK1 was less than 5.00 throughout. As to `C=CC(=O)N1CCC[C@H](C(=O)Nc2ccc(-c3nnc(-c4cccc(-c5ccn[nH]5)n4)[nH]3)nc2)C1` [Compound 018], the pIC50 was 6.90 against IRAK4 and 8.40 against IRAK1. The corresponding values for `C=CC(=O)N1CCC[C@H](C(=O)Nc2ccc(-c3nnc(-c4cccc(-c5ccn[nH]5)n4)o3)nc2)C1` [Compound 019] are 6.48 and 8.30. Regarding `C=CC(=O)N1CCC[C@H](C(=O)Nc2ccc(-c3nc(-c4cccc(-c5ccn[nH]5)n4)no3)nc2)C1` [Compound 020], the pIC50 at IRAK4 was 6.48; on IRAK1, 8.59. Turning to `C=CC(=O)N1CCC[C@H](C(=O)Nc2ccc(-c3ncc(-c4cccc(-c5ccn[nH]5)n4)o3)nc2)C1` [Compound 022], the pIC50 is 6.42 at IRAK4 and 8.27 on IRAK1. Consider `C=CC(=O)N1CCC[C@H](C(=O)Nc2ccc(-c3ncc(-c4cccc(-c5ccn[nH]5)n4)s3)nc2)C1` [Compound 023], for which the values for the pIC50 against IRAK4 and on IRAK1 were 6.61 and 8.22, respectively. Consider `C=CC(=O)N1CCC[C@H](C(=O)Nc2ccc(-c3ncc(-c4cccc(-c5ccn[nH]5)n4)[nH]3)nc2)C1` [Compound 024], for which the pIC50 against IRAK4 was 6.32; on IRAK1, 8.18.

With `C=CC(=O)N1CCC[C@H](C(=O)Nc2ccc(Nc3nsc4ccc(-c5ccn[nH]5)nc34)cc2)C1` [Compound 025], the pIC50 was 6.45 against IRAK4 and 8.65 against IRAK1. Turning to `C=CC(=O)N1CCC[C@H](C(=O)Nc2ccc(Nc3n[nH]c4ccc(-c5ccn[nH]5)nc34)cc2)C1` [Compound 026], the values for the pIC50 on IRAK4 and against IRAK1 were 6.44 and 8.16, respectively. The corresponding values for `C=CC(=O)N1CCC[C@H](c2nc(-c3ccc(NC(=O)c4cccc(-c5ccn[nH]5)n4)cn3)no2)C1` [Compound 061, (S)-N-(6-(5-(1-acryloylpiperidin-3-yl)-1,2,4-oxadiazol-3-yl)pyridin-3-yl)-6-(1H-pyrazol-5-yl)picolinamide] are less than 5.00 and 7.07. The like results for `C=CC(=O)N1C[C@@H](c2nc(-c3ccc(NC(=O)c4cccc(-c5ccn[nH]5)n4)nc3)no2)C[C@@H](C(F)(F)F)C1` [Compound 062] were, in that order, less than 5.00 and 7.03. As for `C=CC(=O)N1C[C@@H](c2nc(-c3ccc(NC(=O)c4cccc(-c5ccn[nH]5)n4)nc3)no2)CC(F)(F)C1` [Compound 063], the values for the pIC50 on IRAK4 and at IRAK1 were less than 5.00 and 7.83, respectively.

In the case of `C=CC(=O)N1C[C@@H](c2nc(-c3ccc(NC(=O)c4cccc(-c5ccn[nH]5)n4)nc3)no2)C[C@H](C(F)(F)F)C1` [Compound 064], the pIC50 is less than 5.00 at IRAK4 and 7.52 on IRAK1. For the compound `C=CC(=O)N1CCC[C@H](C(=O)Nc2ccc(NC(=O)c3csc(-c4ccn[nH]4)n3)nc2)C1` [Compound 068, (S)-N-(5-(1-acryloylpiperidine-3-carboxamido)pyridin-2-yl)-2-(1H-pyrazol-5-yl)thiazole-4-carboxamide], the pIC50 against IRAK4 is 5.24; at IRAK1, 6.49.

With `C=CC(=O)N1CCC[C@H](C(=O)Nc2ccc(-c3cnc(-c4cccc(-c5ccn[nH]5)n4)[nH]3)cc2)C1` [Compound 070, (S)-N-(4-(2-(6-(1H-pyrazol-5-yl)pyridin-2-yl)-1H-imidazol-5-yl)phenyl)-1-acryloylpiperidine-3-carboxamide], the pIC50 was 5.48 on IRAK4 and 5.92 on IRAK1. Regarding `C=CC(=O)N1CCC[C@H](C(=O)Nc2ccc(NC(=O)c3csc(-c4ccn[nH]4)n3)cc2)C1` [Compound 071, (S)-N-(4-(1-acryloylpiperidine-3-carboxamido)phenyl)-2-(1H-pyrazol-5-yl)thiazole-4-carboxamide], the figures for the pIC50 on IRAK4 and on IRAK1 were 5.09 and 6.22, respectively. In the case of `C=CC(=O)N1CC2(CC(c3nc(-c4ccc(NC(=O)c5cccc(-c6ccn[nH]6)n5)cc4)no3)C2)C1` [Compound 077], the pIC50 against IRAK4 is less than 5.00. Still for that read-out and setting: with `C=CC(=O)N1CC2(CC(c3nc(-c4ccc(NC(=O)c5cccc(-c6ccn[nH]6)n5)cc4)no3)C2)C1` [Compound 091] the figure was 5.30.
